This is an account of results in article doi:10.1101/2022.06.29.498063v1, “Molecular basis for the pheromone-mediated feeding preference of early-instar Mythimna separata larvae” (biorxiv, 2022).

The target in the assay is T1, MsGOBP2 (Mythimna separata, UniProt A0A5H2NB15).
T1 construct: recombinant, pColdII vector, E. coli TransB, Ni-NTA purified, expression tag removed with enterokinase
T1 sequence (A0A5H2NB15 22-162): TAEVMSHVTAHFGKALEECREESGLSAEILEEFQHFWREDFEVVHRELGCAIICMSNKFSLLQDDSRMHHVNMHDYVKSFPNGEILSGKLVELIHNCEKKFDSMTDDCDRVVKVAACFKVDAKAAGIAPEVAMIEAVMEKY
Nature of the assay: direct fluorescence titration with the probe. The format is binding. The note with it: 2 μM protein; protein dialyzed in 10 mM PBS pH 7.4; excitation 337 nm.

As for `c1ccc(Nc2cccc3ccccc23)cc1` [1-NPN], the K1-NPN entry is “yielding the dissociation constants between the two proteins and 1-NPN (K1-NPN)”.
